# Experimental data from paper PMC6225478, “Natural Scaffolds with Multi-Target Activity for the Potential Treatment of Alzheimer’s Disease” (Molecules : A Journal of Synthetic Chemistry and Natural …, 2018).
# Several values for one entry are separate records, joined by “and”; a condition that tells them apart may be missing. Equal entries are not always repeated. Where two headings read alike, the source gives them in different places.
# Key:
# Aβ1–40 = target: T1, Aβ1–40 (Homo sapiens, UniProt P05067); assay: Inhibition of Aβ1–40 aggregation (ThT fluorescence); type: biochemical; details: Aβ1–40 30 μM; for IC50: 2 h at 25 °C, ThT fluorescence; for iAβ %I (100μM): percentage of inhibition at 100 μM inhibitor
# T1 construct: diluting Aβ1–40 (EZBiolab, Carmel, IN, USA); purchased EZBiolab, Carmel, IN, USA
# Protocol: The spectrofluorimetric assays measured ThT fluorescence in the presence of Aβ and were done as previously described [39]. Co-incubation samples were prepared in 96-well black, non-binding microplates (Greiner Bio-One GmbH, Frickenhausen, Germany) by diluting Aβ1–40 (EZBiolab, Carmel, IN, USA) alone or in the presence of the inhibitor to a final concentration of 30 μM and 100 μM, respectively, in PBS (pH 7.4) containing 10% DMSO and 2% 1,1,1,3,3,3-hexafluoro-2-propanol (HFIP). After 2 h of incubation at 25 °C, 25 μM ThT solution in phosphate buffer (pH 6.0) was added and fluorescence was read in a multi-plate reader Infinite M1000 Pro (Tecan, Cernusco S.N., Italy). […] Assays were run in triplicate. Values are expressed as mean ± SEM.
# AChE from electric eel = target: T2, AChE from electric eel (Electrophorus electricus, UniProt O42275); assay: biochemical
# T2 construct: purchased Sigma-Aldrich, Milan, Italy
# Protocol: (§1) A modified protocol of Ellman’s spectrophotometric assay [54] adapted to a 96-well plate procedure was followed as previously described [39]. Incubation samples of AChE from electric eel or BChE from equine serum (eeAChE, 463 U/mg, and esBChE, 13 U/mg, Sigma-Aldrich, Milan, Italy) were set in phosphate buffer (pH 8.0) containing 0.5 mM 5,5′-dithiobis(2-nitrobenzoic acid) (DTNB; Sigma-Aldrich, Milan, Italy) as the chromophoric reagent alone or in the presence of the inhibitor (10 μM). Incubations were carried out in clear flat-bottomed, 96-well plates (Greiner Bio-One GmbH, Frickenhausen, Germany) in duplicate. […] After incubation for 20 min at 25 °C, 0.5 mM acetyl- or butyrylthiocholine iodide (Sigma-Aldrich, Milan, Italy) were added as the substrates and AChE-catalyzed hydrolysis was followed by measuring the increase of absorbance at 412 nm for 5 min at 25 °C in a Tecan Infinite M1000 Pro multiplate reader (Tecan, Cernusco S.N., Italy). Inhibition values and IC50s were calculated with a GraphPad Prism as the mean of three independent experiments and are expressed as mean ± SEM.
# BChE from equine serum = target: T3, BChE from equine serum (Equus caballus, UniProt P81908); assay: BChE inhibition, modified Ellman's spectrophotometric assay; type: biochemical; details: for esBChEi %I (10μM): percentage of inhibition at 10 μM inhibitor, equine serum BChE
# T3 construct: purchased Sigma-Aldrich, Milan, Italy; host or cells: equine serum
# Protocol: as §1
# [1] = Antioxidant activity (DPPH radical scavenging assay); details: DPPH 100 µM in methanol, 30 min
# Protocol: The DPPH assay is routinely practiced for the assessment of the free radical scavenging potential of an antioxidant molecule.
# The DPPH radical scavenging assay was performed in 96-well microplates according to the method reported by Blois with some modifications.
# A freshly prepared solution of DPPH in methanol (100 µM final concentration) was added to test compounds methanolic solution. The mixtures were shaken vigorously and left to stand in the dark for 30 min at room temperature. Then absorbance was read at 520 nm using a spectrophotometric plate reader (Victor 3 Perkin-Elmer).
# The antioxidant activity was determined as the RSA% (radical scavenging activity) and calculated using the following equation: RSA% = 100 × [(Ao − Ai)/Ao] where Ao and Ai are the DPPH absorbance in the absence or in the presence of antioxidants, respectively. Different sample concentrations were used in order to obtain anti-radical curves for calculating the EC50 values. Anti-radical curves were plotted referring to log concentration on the x-axis and their RSA% on the y-axis. The EC50 values and statistical analyses were processed using the GraphPad Prism 5 software (San Diego, CA, USA).
# Values of all parameters are expressed as mean ± SEM of at least three independent measurements in triplicate.
# BChE = tested on: BChE; design: method as in PMID 28286309; details: at 100 μg/mL; cited from earlier work
# AChE [2] = tested on: AChE; design: method as in PMID 20692939; details: cited from earlier work
# AChE [3] = tested on: AChE; design: method as in PMID 28286309; details: at 100 μg/mL; cited from earlier work
# AChE [4] = tested on: AChE; design: method as in earlier work; details: ref 40 (Ali et al.); read-out: AChEi (means ± SEMs of triplicate experiments); cited from earlier work
# Aβ = tested on: Aβ; design: method as in PMID 21261647; details: read-out: Inhibitory activity of Aβ aggregation IC50; cited from earlier work
# [5] = acetylcholinesterase from electric eel, mean ± SEM, read-out: eeAChEi IC50 (μM ± SEM)
# [6] = butyrylcholinesterase from equine serum, mean ± SEM, i.a. = not active
# T3 sequence (P81908 whole entry): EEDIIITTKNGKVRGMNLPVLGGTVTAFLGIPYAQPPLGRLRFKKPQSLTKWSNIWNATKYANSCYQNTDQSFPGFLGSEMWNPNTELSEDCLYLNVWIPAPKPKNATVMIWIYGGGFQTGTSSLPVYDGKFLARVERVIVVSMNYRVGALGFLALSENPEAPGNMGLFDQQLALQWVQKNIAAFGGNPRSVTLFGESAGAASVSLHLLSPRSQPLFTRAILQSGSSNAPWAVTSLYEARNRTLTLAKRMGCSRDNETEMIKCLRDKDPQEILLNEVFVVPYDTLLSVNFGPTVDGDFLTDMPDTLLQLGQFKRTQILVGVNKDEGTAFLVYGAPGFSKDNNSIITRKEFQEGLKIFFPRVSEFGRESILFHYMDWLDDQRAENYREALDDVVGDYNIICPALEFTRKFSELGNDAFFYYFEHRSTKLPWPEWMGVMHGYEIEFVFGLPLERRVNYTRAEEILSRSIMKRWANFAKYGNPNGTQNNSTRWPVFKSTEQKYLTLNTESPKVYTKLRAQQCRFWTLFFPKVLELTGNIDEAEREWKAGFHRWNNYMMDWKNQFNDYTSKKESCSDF
# T2 sequence (O42275 24-633): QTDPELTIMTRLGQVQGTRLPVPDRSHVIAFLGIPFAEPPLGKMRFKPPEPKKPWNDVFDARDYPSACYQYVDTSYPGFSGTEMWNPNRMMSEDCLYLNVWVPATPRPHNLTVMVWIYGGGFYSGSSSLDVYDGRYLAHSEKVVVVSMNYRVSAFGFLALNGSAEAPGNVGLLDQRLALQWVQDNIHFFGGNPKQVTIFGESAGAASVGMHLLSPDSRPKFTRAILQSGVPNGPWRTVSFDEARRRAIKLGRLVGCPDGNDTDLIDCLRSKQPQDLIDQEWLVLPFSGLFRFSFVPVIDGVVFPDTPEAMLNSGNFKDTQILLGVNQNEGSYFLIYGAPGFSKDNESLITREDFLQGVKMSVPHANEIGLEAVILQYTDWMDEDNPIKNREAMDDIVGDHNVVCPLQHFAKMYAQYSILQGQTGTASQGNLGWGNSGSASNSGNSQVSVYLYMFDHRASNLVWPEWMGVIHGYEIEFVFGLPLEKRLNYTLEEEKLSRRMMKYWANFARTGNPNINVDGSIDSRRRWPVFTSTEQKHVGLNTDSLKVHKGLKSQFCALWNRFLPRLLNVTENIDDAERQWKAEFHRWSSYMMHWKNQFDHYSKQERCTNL
# T1 sequence (P05067 672-711): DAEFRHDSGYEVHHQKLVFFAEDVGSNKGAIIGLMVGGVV
molecule,measurement,setting,value
"O=c1c(O)c(-c2ccc(O)c(O)c2)oc2cc(O)cc(O)c12 [Quercetin, reference compound]",IC50,Aβ1–40; read-out: iAβ IC50 (μM ± SEM),0.82 ± 0.07 µM
"COc1cc(O)c2c(c1)C[C@@H](C)OC2=O [Compound 4, 6-Methoxymellein]",IC50,AChE from electric eel; [5],11.4 ± 0.8 µM
same,esBChEi %I (10μM),BChE from equine serum,%I (10μM): 10 ± 3%
same,IC50,Aβ1–40; read-out: iAβ IC50 (μM ± SEM),98 ± 3 µM
same,Antioxidant Activity EC50 (μmol/µmol of DPPH ± SEM),[1],> 100 μmol/µmol of DPPH
"O=C(O)c1cc(O)c(O)c(O)c1 [Gallic acid, reference compound]",Antioxidant Activity EC50 (μmol/µmol of DPPH ± SEM),[1],0.054 ± 0.004 μmol/µmol of DPPH
COc1ccc2c3c1O[C@H]1C[C@@H](O)C=C[C@@]31CCN(C)C2 [Galantamine],Percentage of inhibition against BChE,BChE,81.93 ± 2.52%
"COC(=O)/C=C/c1ncn(C)c1CC=C(C)C [Compound 6, Fungerin]",IC50,AChE from electric eel; [5],86 ± 15 µM
same,IC50,"BChE from equine serum; butyrylcholinesterase from equine serum, mean ± SEM, i.a. = not active, read-out: esBChEi IC50 (μM ± SEM)",1.75 ± 0.59 µM
same,Potency on BChE compared to that on AChE,BChE from equine serum; esBChE vs eeAChE IC50,about 50 times
same,iAβ %I (100μM),Aβ1–40,%I (100μM): 33 ± 9
same,Activity as an AChE inhibitor,AChE [2],medium-high micromolar range
same,Antioxidant Activity EC50 (μmol/µmol of DPPH ± SEM),[1],>100 μmol/µmol of DPPH
pteryxin,Percentage of inhibition against BChE,BChE,91.62 ± 1.53%
same,Percentage of inhibition against AChE,AChE [3],9.30 ± 1.86%
"CC[C@H](C)[C@@H]1NC(=O)C(C(C)=O)=C1O [Compound 1, Tenuazonic acid]",IC50,AChE from electric eel,8.13 ± 0.08 µM
same,IC50,Aβ1–40; iAβ IC50 (μM ± SEM),~100 µM
same,iAβ %I (100μM),Aβ1–40,%I (100μM): 50 ± 8
same,Antioxidant Activity EC50 (μmol/µmol of DPPH ± SEM),[1],2.6 μmol/µmol of DPPH and 2.6 ± 0.2 μmol/µmol of DPPH
O=Cc1cc2ccc(=O)oc2cc1O [6-formyl-umbelliferone],IC50,AChE [4],16.7 ± 1.62 µM
O=Cc1c(O)ccc2ccc(=O)oc12 [8-formyl-umbelliferon],IC50,AChE [4],19.1 ± 0.57 µM
"C/C=C/c1cc2c(c(=O)o1)[C@@H](O)[C@@H](O)[C@H](C)O2 [Compound 2, 2-epi-Radicinol]",IC50,AChE from electric eel; [5],6.86 ± 0.67 µM
same,esBChEi IC50 (μM ± SEM),BChE from equine serum; [6],i.a.
same,IC50,Aβ1–40; read-out: iAβ IC50 (μM ± SEM),74 ± 1 µM
same,Antioxidant Activity EC50 (μmol/µmol of DPPH ± SEM),[1],> 100 μmol/µmol of DPPH
"COc1c(C)c2c(c(O)c1C/C=C(\C)CCC(=O)O)C(=O)OC2 [Compound 3, Mycophenolic acid]",IC50,AChE from electric eel; [5],7.84 ± 0.72 µM
same,esBChEi IC50 (μM ± SEM),BChE from equine serum; [6],i.a.
same,iAβ %I (100μM),Aβ1–40,%I (100μM): 38 ± 3
same,Antioxidant Activity EC50 (μmol/µmol of DPPH ± SEM),[1],14.7 μmol/µmol of DPPH and 14.7 ± 3.4 μmol/µmol of DPPH
Oc1ccc(/C=C/c2cc(O)cc3c2[C@H](c2cc(O)cc(O)c2)[C@@H](c2ccc(O)c(O)c2)O3)cc1 [scirpusin A],IC50,Aβ,0.7 ± 0.3 µM
"C/C=C/c1cc2c(c(=O)o1)C(=O)[C@@H](O)[C@H](C)O2 [Compound 5, Radicinin]",IC50,AChE from electric eel; [5],8.96 ± 0.97 µM
same,esBChEi %I (10μM),BChE from equine serum,%I (10μM): 6 ± 1%
same,iAβ %I (100μM),Aβ1–40,%I (100μM): 44 ± 3
same,Antioxidant Activity EC50 (μmol/µmol of DPPH ± SEM),[1],>100 μmol/µmol of DPPH
ε-viniferin glucoside,IC50,Aβ,0.2 ± 0.3 µM
"Oc1c(I)cc(Cl)c2cccnc12 [Clioquinol, reference compound]",IC50,AChE from electric eel; [5],8.12 ± 1 µM
same,esBChEi %I (10μM),BChE from equine serum,%I (10μM): 10 ± 1%
same,IC50,Aβ1–40; read-out: iAβ IC50 (μM ± SEM),7.6 ± 0.8 µM
same,Antioxidant Activity EC50 (μmol/µmol of DPPH ± SEM),[1],0.74 ± 0.04 μmol/µmol of DPPH
